From patent US5892099A, “3,7-dithiaprostanoic acid derivative” (Ono Pharmaceutical Co., Ltd., priority 1997, dated 1999)

How the values were obtained:
mouse EP4 = molecular target: T1, mouse EP4 (Mus musculus, UniProt P32240); assay: Binding assay using expression cell of the prostanoid receptor subtype (EP4), competition of specific 3H-PGE2 binding; details: membrane fraction of EP4 expressing CHO cells; 2.5 nM 3H-PGE2; pH 6.0; 1 hour at room temperature; read-out: Dissociation constant for EP4 Ki
T1 construct: expressed in transfected cells; host or cells: CHO cells
Description: (§1) (I) Binding assay using expression cell of the prostanoid receptor subtype
(§2) The preparation of membrane fraction was carried out according to the method of Sugimoto et al (J. Biol. Chem. 267, 6463-6466 (1992)) using the prostanoid receptor subtypes (mouse EP3α, EP4) expressing CHO cells.
(§3) The standard assay mixture containing membrane fraction (0.5 mg/ml) and ^3 H-PGE2 in a final volume of 200 μl was incubated for 1 hour at room temperature. The reaction was terminated by the addition of 3 ml of ice-cold buffer. The mixture was rapidly filtered through a GF/B glass filter. The radioactivity associated with the filter was measured by liquid scintillation counting.
(§4) Kd and Bmax value were determined from Scatchard plots (Ann. N. Y. Sci., 51, 660 (1949)). Non-specific binding was calculated as the bound in the presence of an excess (2.5 μM) of unlabeled PGE2.
(§5) In the experiment for competition of specific ^3 H-PGE2 binding by the compounds of the present invention, 2.5 nM of ^3 H-PGE2 and various concentration of the compounds of the present invention were added. The following buffer was used in all reactions. Buffer: 10 mM potassium phosphate (pH 6.0), 1 mM EDTA, 10 mM MgCl2, 0.1M NaCl. The dissociation constant (Ki) of each compound was calculated by the following equation.

mouse EP3α = molecular target: T2, mouse EP3α (Mus musculus, UniProt P30557); assay: Binding assay using expression cell of the prostanoid receptor subtype (EP3α), competition of specific 3H-PGE2 binding; details: membrane fraction of EP3α expressing CHO cells; 2.5 nM 3H-PGE2; pH 6.0; 1 hour at room temperature; read-out: Dissociation constant for EP3α Ki
T2 construct: expressed in transfected cells; host or cells: CHO cells
T2 sequence (P30557 1-365): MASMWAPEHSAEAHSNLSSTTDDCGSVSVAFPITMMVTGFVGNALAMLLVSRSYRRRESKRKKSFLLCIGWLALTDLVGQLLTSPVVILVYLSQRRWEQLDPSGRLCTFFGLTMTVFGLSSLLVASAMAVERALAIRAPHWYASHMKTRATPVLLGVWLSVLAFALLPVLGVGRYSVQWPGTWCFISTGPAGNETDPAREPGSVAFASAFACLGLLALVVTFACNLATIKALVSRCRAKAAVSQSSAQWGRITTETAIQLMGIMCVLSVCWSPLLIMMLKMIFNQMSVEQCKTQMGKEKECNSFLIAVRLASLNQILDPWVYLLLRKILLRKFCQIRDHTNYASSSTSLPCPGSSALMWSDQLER
Description: as §1, §2, §3, §4, §5

T1 sequence (P32240 whole entry): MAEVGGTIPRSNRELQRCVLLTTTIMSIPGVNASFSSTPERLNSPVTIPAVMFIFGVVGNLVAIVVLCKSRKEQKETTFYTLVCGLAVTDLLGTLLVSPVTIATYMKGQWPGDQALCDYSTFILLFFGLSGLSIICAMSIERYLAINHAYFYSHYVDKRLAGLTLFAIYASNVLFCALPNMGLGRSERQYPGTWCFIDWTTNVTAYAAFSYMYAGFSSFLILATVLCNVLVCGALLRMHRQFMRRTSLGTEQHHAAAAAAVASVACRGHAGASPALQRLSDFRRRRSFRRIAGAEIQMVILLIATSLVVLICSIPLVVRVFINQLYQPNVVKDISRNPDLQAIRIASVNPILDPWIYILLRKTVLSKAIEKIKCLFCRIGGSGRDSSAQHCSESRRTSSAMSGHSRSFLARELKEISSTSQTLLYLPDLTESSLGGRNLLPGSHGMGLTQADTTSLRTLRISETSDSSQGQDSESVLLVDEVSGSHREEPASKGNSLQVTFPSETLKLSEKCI

Compound `CCCCC(C)CC(O)/C=C/C1C(O)CC(=O)C1SCCCSCC(=O)O` (stereo not drawn) [Example 2(a), 11α,15α-dihydroxy-9-oxo-17β,20-dimethyl-3,7-dithiaprost-13E-enoic acid] has a Ki (mouse EP4) of 0.8 nM and a Ki (mouse EP3α) of 10 nM.

In the case of `CCCC[C@H](C)C[C@H](O)/C=C/[C@H]1[C@H](O)CC(=O)[C@@H]1SCCCSCC(=O)O` [Example 2(b), 11α,15α-dihydroxy-9-oxo-17α,20-dimethyl-3,7-dithiaprost-13E-enoic acid], the Ki (mouse EP4) is reported as 0.6 nM.

`CCCCC(C)(O)C/C=C/C1C(O)CC(=O)C1SCCCSCC(=O)O` (stereo not drawn) [Example 2(c), 11α,16β-dihydroxy-9-oxo-16α-methyl-3,7-dithiaprost-13E-enoic acid] showed a Ki (mouse EP4) of 5.6 nM.

In the case of `CCCCC[C@H](O)CC[C@@H]1C(SCCCSCC(=O)O)C(=O)C[C@H]1O` (stereo partly drawn) [Example 2(d), 11α,15α-dihydroxy-9-oxo-3,7-dithiaprostanoic acid], the Ki (mouse EP4) is reported as 1.6 nM.

`CC/C=C\CC(O)/C=C/C1C(O)CC(=O)C1SCCCSCC(=O)O` (stereo not drawn) [Example 2(e), 11α,15α-dihydroxy-9-oxo-3,7-dithiaprost-13E,17Z-dienoic acid] gave a Ki (mouse EP4) of 0.91 nM.

For `O=C(O)CSCCCSC1C(=O)CC(O)C1/C=C/C(O)Cc1ccccc1` (stereo not drawn) [Example 2(f), 11α,15α-dihydroxy-9-oxo-16-phenyl-17,18,19,20-tetranor-3,7-dithiaprost-13E-enoic acid], the Ki (mouse EP4) was 7 nM and the Ki (mouse EP3α) was 130 nM.

Compound `O=C(O)CSCCCSC1C(=O)CC(O)C1/C=C/C(O)CCc1ccccc1` (stereo not drawn) [Example 2(g), 11α,15α-dihydroxy-9-oxo-17-phenyl-18,19,20-trinor-3,7-dithiaprost-13E-enoic acid] has a Ki (mouse EP4) of 6 nM.

With `O=C(O)CSCCCS[C@H]1C(=O)C[C@@H](O)[C@@H]1/C=C/[C@@H](O)C1CCCCC1` [Example 2(h), 11α,15α-dihydroxy-9-oxo-15-cyclohexyl-3,7-dithia-16,17,18,19,20-pentanorprost-13E-enoic acid] the Ki (mouse EP4) was 22 nM and the Ki (mouse EP3α) was 610 nM.

`CCCCC[C@](C)(O)/C=C/[C@H]1[C@H](O)CC(=O)[C@@H]1SCCCSCC(=O)O` [Example 2(k), 11α,15α-dihydroxy-9-oxo-15β-methyl-3,7-dithiaprost-13E-enoic acid] gave a Ki (mouse EP4) of 0.7 nM and a Ki (mouse EP3α) of 34 nM.

`CCCCC(O)/C=C/C1C(O)CC(=O)C1SCCCSCC(=O)O` (stereo not drawn) [Example 2(m), 11α,15α-dihydroxy-9-oxo-3,7-dithia-20-norprost-13E-enoic acid] gave a Ki (mouse EP4) of 1.4 nM and a Ki (mouse EP3α) of 23 nM.

In the case of `CCCC[C@H](C)[C@H](O)/C=C/[C@@H]1C(SCCCSCC(=O)O)C(=O)C[C@H]1O` (stereo partly drawn) [Example 2(o), 11α,15α-dihydroxy-9-oxo-16β-methyl-3,7-dithiaprost-13E-enoic acid], the Ki (mouse EP4) is reported as 0.2 nM and the Ki (mouse EP3α) is reported as 25 nM.

`O=C(O)CSCCCSC1C(=O)CC(O)C1/C=C/C(O)CCCC1CC1` (stereo not drawn) [Example 2(q), 11α,15α-dihydroxy-9-oxo-19,20-methano-3,7-dithiaprost-13E-enoicacid] was tested, and the Ki (mouse EP4) was 0.4 nM.

Compound `O=C(O)CSCCCSC1C(=O)CC(O)C1/C=C/C(O)CC1CCCC1` (stereo not drawn) [Example 2(t), 11α,15α-dihydroxy-9-oxo-16-cyclopentyl-3,7-dithia-17,18,19,20-tetranorprost-13E-enoic acid] has a Ki (mouse EP4) of 4.2 nM.

Work on `CCCCCC(O)/C=C/C1C(O)CC(=O)C1SCCCSCC(=O)O` (stereo not drawn) [Example 2, 11α,15α-dihydroxy-9-oxo-3,7-dithiaprost-13E-enoic acid] yielded a Ki (mouse EP4) of 0.7 nM and a Ki (mouse EP3α) of 1500 nM.
